Measured values as given in US6706663B2, “Herbicidal 3-heterocyclic substituted benzisothiazole and benzisoxazole compounds” (Wyeth, priority 2000, dated 2004).

Key:
[1] = test system: ABUTH (Abutilon theophrasti); test: Preemergence herbicidal evaluation; type: in vivo, Medic.; details: rated 4-5 weeks after treatment
[2] = test system: ABUTH (Abutilon theophrasti); test: Postemergence herbicidal evaluation; type: in vivo, Medic.; details: for ABUTH herbicidal rating: postemergence
Method in brief: (§1)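 Seedlings grown for about two weeks were sprayed postemergence and then kept under standard greenhouse care. Injury was rated visually 4–5 weeks after treatment on a 0–9 scale against untreated controls, and ratings from repeat tests were averaged.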

GALAP (Galium aparine) [3] = test: Postemergence herbicidal evaluation; type: in vivo; details: for GALAP herbicidal rating: postemergence
Method in brief: as §1

[4] = test system: IPOHE (Ipomoea hederacea); test: Preemergence herbicidal evaluation; type: in vivo, (L.) Jacq.; details: rated 4-5 weeks after treatment
ORYSAT (Rice, Tebonnet) [5] = test: Postemergence herbicidal evaluation; type: in vivo, Oryza sativa, (L.) Tebonnet; details: for ORYSAT herbicidal rating: postemergence
Method in brief: as §1

[6] = test system: CYPSE (Cyperus serotinus); test: Flooded paddy, preemergence weed control; type: in vivo, Rottb.; details: rated 3-4 weeks after treatment, 0-9 rating scale
Method in brief: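 Seeds or propagules were planted 0.5 cm deep in silt loam and flooded to 1.5–3 cm. Compounds in 50/50 v/v aqueous/acetone were pipetted into the flood water at about 0.0080 to 0.1250 kg/ha. After 3–4 weeks in the greenhouse, effect was rated visually on a 0–9 scale versus untreated control.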

ZEAMX (Corn, Field) = test: Postemergence herbicidal evaluation; type: in vivo, Zea mays, L.; details: for ZEAMX herbicidal rating: postemergence
Method in brief: as §1

[7] = test system: GLXMAW (Soybean, Williams); test: Postemergence herbicidal evaluation; type: in vivo, Glycine max, (L.) Merr. cv Williams; details: for GLXMAW herbicidal rating: postemergence
Method in brief: as §1

GALAP (Galium aparine) [8] = test: Preemergence herbicidal evaluation; type: in vivo; details: rated 4-5 weeks after treatment
Method in brief: (§2)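 Seeds mixed with potting soil were planted atop about one inch of soil, then sprayed with test compound in aqueous acetone. Cups were kept in the greenhouse and rated visually 4–5 weeks after treatment on a 0–9 scale against untreated control.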

ORYSAT (Rice, Tebonnet) [9] = test: Flooded paddy, post-transplant rice tolerance; type: in vivo, Oryza sativa, (L.) Tebonnet; details: flooded paddy, post-transplant rice, rated 3-4 weeks after treatment, 0-9 rating scale
Method in brief: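 Two ten-day-old seedlings were transplanted into silt loam, flooded and held at 1.5 to 3 cm water above the soil before herbicide treatment. Pots stayed in the greenhouse at that water level. Injury was scored visually on a 0-9 scale versus untreated control.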

[10] = test system: TRZAWR (Wheat, Winter, cv Riband); test: Preemergence herbicidal evaluation; type: in vivo, Triticum aestivum; details: Rate 0.0620 kg/ha; preemergence; rated 4-5 weeks after treatment
Method in brief: as §2

Cn1c(C(F)(F)F)cc(=O)n(-c2ccc3snc(C4OCCCS4)c3c2)c1=O (centres unmarked) [Compound 34, 1-methyl-3-[3-(1,3-oxathian-2-yl)-1,2-benzisothiazol-5-yl]-6-(trifluoromethyl)uracil]
ABUTH preemergence herbicidal rating ([1]; Rate 0.0620 kg/ha): 9.0
Preemergence herbicidal rating ABUTH ([1]; Rate 0.0620 kg/ha): 9.0
ABUTH preemergence herbicidal rating ([1]; Rate 0.1250 kg/ha): 9.0
Preemergence herbicidal rating ABUTH ([1]; Rate 0.1250 kg/ha): 9.0
ABUTH preemergence herbicidal rating ([1]; Rate 0.2500 kg/ha): 9.0
Preemergence herbicidal rating ABUTH ([1]; Rate 0.2500 kg/ha): 9.0
ABUTH herbicidal rating ([2]; rate 0.0320 kg/ha): 9.0
ABUTH herbicidal rating ([2]; rate 0.0620 kg/ha): 9.0
Postemergence herbicidal rating, ABUTH ([2]; rate 0.0320 kg/ha): 9.0
Postemergence herbicidal rating, ABUTH ([2]; rate 0.0620 kg/ha): 9.0
GALAP herbicidal rating (GALAP (Galium aparine) [3]; rate 0.0320 kg/ha): 2.0
GALAP herbicidal rating (GALAP (Galium aparine) [3]; rate 0.0620 kg/ha): 6.0
Postemergence herbicidal rating, GALAP (GALAP (Galium aparine) [3]; rate 0.0320 kg/ha): 6.0
Postemergence herbicidal rating, GALAP (GALAP (Galium aparine) [3]; rate 0.0620 kg/ha): 7.0
IPOHE preemergence herbicidal rating ([4]; Rate 0.0620 kg/ha): 9.0
Preemergence herbicidal rating IPOHE ([4]; Rate 0.0620 kg/ha): 6.0
IPOHE preemergence herbicidal rating ([4]; Rate 0.1250 kg/ha): 9.0
Preemergence herbicidal rating IPOHE ([4]; Rate 0.1250 kg/ha): 6.0
IPOHE preemergence herbicidal rating ([4]; Rate 0.2500 kg/ha): 9.0
Preemergence herbicidal rating IPOHE ([4]; Rate 0.2500 kg/ha): 9.0
ORYSAT herbicidal rating (ORYSAT (Rice, Tebonnet) [5]; rate 0.0320 kg/ha): 5.5
ORYSAT herbicidal rating (ORYSAT (Rice, Tebonnet) [5]; rate 0.0620 kg/ha): 6.5
Postemergence herbicidal rating, ORYSAT (ORYSAT (Rice, Tebonnet) [5]; rate 0.0320 kg/ha): 7.0
Postemergence herbicidal rating, ORYSAT (ORYSAT (Rice, Tebonnet) [5]; rate 0.0620 kg/ha): 7.0
herbicidal rating, CYPSE ([6]; rate 0.0620 kg/ha): 9.0
herbicidal rating, CYPSE ([6]; rate 0.1250 kg/ha): 9.0
ZEAMX herbicidal rating (ZEAMX (Corn, Field); rate 0.0320 kg/ha): 5.0
ZEAMX herbicidal rating (ZEAMX (Corn, Field); rate 0.0620 kg/ha): 7.0
Postemergence herbicidal rating, ZEAMX (ZEAMX (Corn, Field); rate 0.0320 kg/ha): 6.0
Postemergence herbicidal rating, ZEAMX (ZEAMX (Corn, Field); rate 0.0620 kg/ha): 7.0
GLXMAW herbicidal rating ([7]; rate 0.0320 kg/ha): 6.5
GLXMAW herbicidal rating ([7]; rate 0.0620 kg/ha): 6.5
Postemergence herbicidal rating, GLXMAW ([7]; rate 0.0320 kg/ha): 9.0
Postemergence herbicidal rating, GLXMAW ([7]; rate 0.0620 kg/ha): 9.0
GALAP preemergence herbicidal rating (GALAP (Galium aparine) [8]; Rate 0.0620 kg/ha): 5.0
Preemergence herbicidal rating GALAP (GALAP (Galium aparine) [8]; Rate 0.0620 kg/ha): 9.0
GALAP preemergence herbicidal rating (GALAP (Galium aparine) [8]; Rate 0.1250 kg/ha): 9.0
Preemergence herbicidal rating GALAP (GALAP (Galium aparine) [8]; Rate 0.1250 kg/ha): 9.0
GALAP preemergence herbicidal rating (GALAP (Galium aparine) [8]; Rate 0.2500 kg/ha): 9.0
Preemergence herbicidal rating GALAP (GALAP (Galium aparine) [8]; Rate 0.2500 kg/ha): 9.0
herbicidal rating, ORYSAT (rice tolerance) (ORYSAT (Rice, Tebonnet) [9]; rate 0.0080 kg/ha): 3.0
herbicidal rating, ORYSAT (rice tolerance) (ORYSAT (Rice, Tebonnet) [9]; rate 0.0080 kg/ha, listed as 81): 5.0
herbicidal rating, ORYSAT (rice tolerance) (ORYSAT (Rice, Tebonnet) [9]; rate 0.0320 kg/ha): 6.7
herbicidal rating, ORYSAT (rice tolerance) (ORYSAT (Rice, Tebonnet) [9]; rate 0.0620 kg/ha): 8.5
herbicidal rating, ORYSAT (rice tolerance) (ORYSAT (Rice, Tebonnet) [9]; rate 0.1250 kg/ha): 9.0
herbicidal rating, ORYSAT (rice tolerance) (ORYSAT (Rice, Tebonnet) [9]; rate 0.1250 kg/ha, listed as 81): 8.0
TRZAWR preemergence herbicidal rating [10]: 5.0
